In one series the test system is DNA. Particulars: ref Ball et al. [2004]; cited from earlier work. An excerpt: The majority of the known antimicrobial peptides have been isolated from natural sources. Recently genomic and proteomic methods have also been applied for peptide identification. Knowledge obtained by both classical and novel methods can be used to design the chemical synthesis of new peptide compounds with biological properties. The sequence analysis of natural antimicrobial peptides led to a template, with which it is possible to generate active AMPs (Tossi et al. [1997]; Giangaspero et al. [2001]; Tossi et al. [2000]). We designed three scrambled hexapeptides, one according to this templat ...

The test system of the next series is A. baumannii DBM 3183. The experiment in a line: microbe, parasite or virus in culture. The series is classed as cell-based, Acinetobacter baumannii. Particulars: DBM 3183, 25 h. As for the experimental part:
(§1) A Bioscreen C automated microbiology growth curve analysis system (Growth Curves, Piscataway, NJ, USA) was used for the quantitative determination of antimicrobial activity (minimal inhibitory concentration, MIC) of PAL/LCA-peptides. Optical density was measured with a wide bandpass filter (wavelength range 420–580 nm) at regular intervals and temperatures. This assay was performed in a special microtiter plate (10 × 10 wells) that allowed the simultaneous testing of a large number of samples against several microorganisms. The total testing volume was 100 µL, obtained by mixing 10 µL of microbial culture with OD600 equal to 0.1 with growth medium and a solution of the tested compounds. The positive controls were vancomycin and tetracycline for Bacillus subtilis (100 µg/mL) for Gram-positive bacteria, kanamycin, and tetracycline for Acinetobacter baumannii (100 µg/mL) for Gram-negative bacteria, and clotrimazole or amphotericin (100 µg/mL) for fungi. The maximal concentration of tested lipoproteins was 1 mg/mL. A pure growth medium was used as the negative control. The measurement period was 25 h. The lowest concentration with a 100% inhibition effect for 24 h of incubation was chosen as the MIC. The antibacterial activity of each compound was expressed as the minimum inhibitory concentration MIC (MIC is the lowest concentration of the compound needed to inhibit the growth of bacterial cells) and IC50 (IC50 is the concentration of the compound needed to inhibit the growth of bacterial cells by 50%).

For the next series, the system named is E. coli DBM 3001. The series is classed as cell-based. Particulars: DBM 3001, 25 h. As for the experimental part:
as §1

The next series concerns E. faecalis DBM 3075. The series is classed as cell-based. Particulars: DBM 3075, 25 h. As for the experimental part: as §1
For a further series, the system named is Ps. aeruginosa DBM 3081. The series is classed as cell-based, Pseudomonas aeruginosa. Particulars: 25 h. As for the experimental part:
as §1

The next series relates to B. subtilis DBM 3006. The series is classed as cell-based, Bacillus subtilis. As for the experimental part:
as §1

The next series concerns M. luteus DBM 3053. The class given is cell-based, Micrococcus luteus. As for the experimental part: as §1
A further series concerns Staph. aureus DBM 3002. The series is classed as cell-based, Staphylococcus aureus. As for the experimental part: as §1
Another series relates to Staph. aureus MRSA1. The class given is cell-based, Staphylococcus aureus. As for the experimental part:
as §1

In the next series the test system is C. tropicalis DBM 2166. The series is classed as cell-based, Candida tropicalis. As for the experimental part:
as §1

For series [1], the system named is plasmid pBluescript II KS-. The experiment in a line: DNA binding assay (gel retardation). Particulars: 50 ng DNA, 1 h room temperature, 1% agarose gel. As for the experimental part: This assay was performed as described by Park et al. ([1998]), with a few modifications. […] The reaction mixture was incubated at room temperature for 1 h. Subsequently, 4 µL of native loading buffer (10% Ficol, 10 mM Tris–HCl (pH 7.5), 50 mM EDTA, 0.25% bromophenol blue) was added. An aliquot was applied to 1% agarose gel electrophoresis in 0.5xTris borate-EDTA buffer. Circular plasmid DNA was isolated from (Luria–Bertani medium with AMPI in final concentration 100 µg/mL) bacterial strain E. coli DH5α / pBluescriptII KS- that had been grown overnight, and linearization was performed overnight by enzymatic reaction using restriction endonuclease EcoRV at 37 °C. The evaluation was performed by visualizing the DNA with the intercalation dye Midori Green Advanced DNA Stain under UV light. Reduced electrophoretic mobility compared to the control is considered to be evidence of peptide binding to DNA.
According to the previous results, we decided to clarify one of the possible molecular interaction mechanisms, the ability of the studied lipopeptides to bind microbial plasmid DNA. Based on the assumption that pore formation is only one of the influencing factors, which arose from previous results, the effect on one of the possible intracellular targets, DNA, was determined. This determination was carried out on isolated plasmid DNA, specifically on two plasmids, pGreen 0029 and pBluescript II KS- in circular and linearized form.

A further series concerns Staph. aureus. The experiment in a line: Transmission electron microscopy of treated bacteria. The settings on record: 1 to 4 h incubation; media with (Mueller–Hinton broth 2) and without nutrients (potassium phosphate buffer). The class given is cell-based, Staphylococcus aureus. As for the experimental part:
Pictures of damaged bacterial cells were obtained by transmission electron microscopy after 1 to 4 h of incubation. Cells of the Gram-positive bacterial strains were not stained. A JEOL JEM-1010 transmission electron microscope (JEOL, Tokyo, Japan) equipped with a MegaView III CCD camera was used for visualization, and evaluation was performed with the program for image analysis AnalySIS software v. 2.0 (Soft Imaging Systems). The samples were plated on a carbon-coated electron microscopic grid and observed with an accelerating voltage of 80 kV.

For a further series, the system named is HEK293T. Briefly: Cytotoxicity assay (xCELLigence impedance). The class given is cell-based, human. The settings on record: 24 h exposure. As for the experimental part:
(§2) Experiments were carried out using an xCELLigence RTCA DP Instrument (Roche Diagnostics GmbH, Mannheim, Germany) which was placed into an incubator (37 °C and 5% CO2). Cell proliferation and cytotoxicity experiments were performed using modified 16-well plates (E-plate, Roche Diagnostics GmbH, Mannheim, Germany). Microelectrodes were attached to the bottom of the wells for the impedance-based detection of attachment, spreading, and proliferation of the cells (Stoddart [2011]). This system monitors cellular events in real time without the incorporation of labels by measuring electrical impedance across an interdigitated microelectrode integrated into the bottom of this special tissue culture plate. This impedance measurement improves upon conventional endpoint assays and provides quantitative information about the biological status of the cells, including cell number, adhesion, viability, and morphology. Ninety microliters of cultivation medium was used for the blank sample, and subsequently, 100 µL of HepG2 or HEK293T cell suspension (7 × 10^5 cells/mL) was added and placed into the incubator (37 °C, 95% humidity, 5% CO2). […] Chrysophsin-3 at a concentration of 100 µg/mL was used as a positive control and solvent (deionized water) as a negative control. Subsequent incubation was performed for at least an additional 24 h. The result of the measurement was viability curves. After the measurement, percentages of tissue culture growth inhibition were calculated for all the tested substances, as follows: %inhibition=(1-(ΔϕCIsample)/(ΔϕCIcontrol))·100
(§3) Δ∅CIsample … the difference between the first and last average CI (cell index) values of the tissue culture in the presence of the tested sample.
(§4) Δ∅CIcontrol … the difference between the first and last average CI values of the tissue culture itself.

A further series deals with HepG2. Briefly: Cytotoxicity assay (xCELLigence impedance). The class given is cell-based, human. Particulars: 24 h exposure. As for the experimental part:
as §2, §3, §4

≈ marks a conversion by molar mass, not a printed value. Residues, ends and D or L forms follow the SMILES beside them. *: point of attachment. Lithocholoyl = C[C@H](CCC(=O)*)[C@H]1CC[C@H]2[C@@H]3CC[C@@H]4C[C@H](O)CC[C@]4(C)[C@H]3CC[C@]12C

For `C[C@H](CCC(=O)O)[C@H]1CC[C@H]2[C@@H]3CC[C@@H]4C[C@H](O)CC[C@]4(C)[C@H]3CC[C@]12C` [LCA, lithocholic acid], the “concentration range in which mutagenic factor” value with DNA is 200 to 400 µM.
With `CC(C)C[C@H](NC(=O)CC[C@@H](C)[C@H]1CC[C@H]2[C@@H]3CC[C@@H]4C[C@H](O)CC[C@]4(C)[C@H]3CC[C@]12C)C(=O)N[C@H](C(=O)N[C@@H](CCCCN)C(=O)NCC(=O)N[C@@H](C)C(=O)N[C@@H](CCCNC(=N)N)C(N)=O)C(C)C` [SHP-2.3, LCA-LVKGAR-NH2] (Lithocholoyl-LVKGAR-NH2), the IC50 (commonly the midpoint of a concentration-inhibition curve) with A. baumannii DBM 3183 is recorded as “N / > 100.0 µg/mL”; with E. coli DBM 3001, “N / > 100.0 µg/mL”; in the series with E. faecalis DBM 3075, “N / > 100.0 µg/mL”; in the series with Ps. aeruginosa DBM 3081 it was “N / > 100.0 µg/mL”; in the series with B. subtilis DBM 3006 (DBM 3006, 25 h) it was 20.0 µg/mL (≈ 20 µM); in the series with M. luteus DBM 3053 (DBM 3053, 25 h), 5.0 µg/mL (≈ 5 µM). The IC50 with Staph. aureus DBM 3002 (25 h) was found to be 50.0 µg/mL (≈ 50 µM); in the series on Staph. aureus MRSA1 (25 h) it was 50.0 µg/mL (≈ 50 µM); in the series with C. tropicalis DBM 2166 (DBM 2166, 25 h) it was 75.0 µg/mL (≈ 75 µM). Also, the MIC (in general, the lowest concentration that inhibits growth of the organism) amounted to 6.9 µg/mL (≈ 6.9 µM) in the series on B. subtilis DBM 3006 (DBM 3006, 24 h); 1.6 µg/mL (≈ 1.6 µM) in the series on M. luteus DBM 3053 (DBM 3053, 24 h); 31.9 µg/mL (≈ 31.9 µM) against Staph. aureus DBM 3002 (24 h); 25.1 µg/mL (≈ 25.1 µM) with Staph. aureus MRSA1 (24 h); 56.4 µg/mL (≈ 56.4 µM) against C. tropicalis DBM 2166 (DBM 2166, 24 h). Moreover, the “weight ratio lipopeptide:DNA influencing electrophoretic mobility” value in [1] (circular plasmid) and in series [1] (linearized plasmid) was 10.0 throughout. Also, in the series with Staph. aureus, the “morphological effect on bacterial cells (TEM)” value is listed as “damaging cellular envelopes”. Besides, the % inhibition (in general, the change of the read-out against control, counted positive when it falls) stood at 25.6 ± 3.8% with HEK293T (c 50 µg/mL); 42.2 ± 6.3% in the series on HEK293T (c 100 µg/mL); 85.1 ± 12.8% in the series with HEK293T (c 200 µg/mL); 7.4 ± 1.1% with HepG2 (c 50 µg/mL); 0.0 ± 2.2% in the series on HepG2 (c 100 µg/mL).

These data come from PMC11003925, “Antimicrobial activity and properties of de novo design of short synthetic lipopeptides” (Folia Microbiologica, 2024).
